In patent publication US4016167A, “N-Substituted-6,8-dioxamorphinans” (Bristol-Myers Company, priority 1975, dated 1977):
Where a name gives a salt, the structure may show the parent alone.

Tests used:
[1] = tested on: Straub Tail induced by oxymorphone; test: Antagonism of Straub Tail induced by oxymorphone in mice (antagonist activity); assay type: in vivo, mouse; conditions: antagonism of Straub Tail induced by oxymorphone (2 mg./kg. s.c.) in 50 percent of mice, reported as free base; for ED50 Antagonist Activity, Oxymorphone Straub Tail: s.c., tartrate; for ED50: Mus musculus, sc
Experimental: ^2 Antagonism of Straub Tail induced by oxymorphone (2 mg./kg. s.c.) in 50 percent of mice.

[2] = tested on: phenylquinone induced writhings; test: Phenylquinone writhing, mouse s.c. (agonist activity); assay type: in vivo; conditions: 50 percent reduction in number of phenylquinone induced writhings, tested as salts, reported as free base; for ED50 Agonist Activity, Phenylquinone Writhing: tartrate; for ED50: Mus musculus, sc
Text: ^1 A 50 percent reduction in number of phenylquinone induced writhings (Siegmund, E.A. et al., Proc. Soc. Biol. & Med. 95, 729; 1957).

[3] = tested on: agonist or antagonist activity in mice and rats; test: Agonist and/or antagonist activity in mice and rats, overall assessment of the testing results; assay type: in vivo; conditions: conclusion from Table I
[4] = tested on: analgesic effect induced by morphine; test: Morphine antagonism, rat tail flick (antagonist activity); conditions: sc, read-out: ED50 Antagonist Activity, Morphine Antagonism Rat Tail Flick
[5] = prior art; cited from earlier work

Structure (SMILES) | ED50 Antagonist Activity, Oxymorphone Straub Tail [1] [mg/kg] | ED50 Agonist Activity, Phenylquinone Writhing [2] [mg/kg] | ED50 [1] [mg/kg] | ED50 [2] [mg/kg] | agonist or antagonist activity (in words) [3] | ED50 [4] [mg/kg] | agonist and antagonist properties [5]
COc1ccc2c(c1)[C@]13CCN(CC4CC4)[C@H](C2)[C@@H]1OC(C)(C)OC3.O=C(O)C(O)C(O)C(=O)O (single isomer, unassigned) [(+)-XIVd, (+)-17-Cyclopropylmethyl-7,7-dimethyl-3-methoxy-6,8-dioxamorphinan-(-)-hydrogen tartrate] | > 40 | > 40 | – | – | – | – | –
CC1(C)OCC23CCN(CC4CC4)C(Cc4ccc(O)cc42)C3O1 (single isomer, unassigned) [(+)-XVd, (+)-17,Cyclopropylmethyl-7,7-dimethyl-3-hydroxy-6,8-dioxamorphinan (-) tartrate] | – | – | > 40 | > 10 | – | – | –
COc1ccc2c(c1)[C@]13CCN(CC4CC4)[C@H](C2)[C@@H]1OC(C)(C)OC3.O=C(O)C(O)C(O)C(=O)O (single isomer, unassigned) [(-)-XIVd, (- )-17-Cyclopropylmethyl-7,7-dimethyl-3-methoxy-6,8-dioxamorphinan-(+ )-hydrogen tartrate] | 5 | 0.066 | – | – | Outstanding | 1.19 | –
CC1(C)OC[C@]23CCN(CC4CC4)[C@H](Cc4ccc(O)cc42)[C@@H]3O1.O=C(O)C(O)C(O)C(=O)O (single isomer, unassigned) [(-)-XVd, (- )-17-Cyclopropylmethyl-7,7-dimethyl-3-hydroxy-6,8-dioxamorphinan (+ ) tartrate] | – | – | 0.09 | 0.005 | Outstanding | 0.032 | –
COc1ccc2c(c1)[C@]13CCN(C)[C@H](C2)[C@@H]1OCOC3 [IXa, 3-Methoxy-17-methyl-6,8-dioxamorphinan] | – | – | > 20 | ~5 | – | – | –
COc1ccc2c(c1)[C@]13CCN(C)[C@H](C2)[C@]1(C)OCOC3 [IXc, 14β,17-Dimethyl-3-methoxy-6,8-dioxamorphinan] | – | – | > 40 | 0.31 | – | – | –
COc1ccc2c(c1)[C@]13CCN(C)[C@H](C2)[C@@H]1OC(C)(C)OC3 [IXd, 3-Methoxy-7,7,17-trimethyl-6,8-dioxamorphinan] | – | – | > 40 | 0.63 | – | – | –
COc1ccc2c(c1)[C@]13CCN[C@H](C2)[C@@H]1OCOC3.O=C(O)/C=C/C(=O)O [XIIa, 3-Methoxy-6,8-dioxamorphinan hydrogen fumarate] | – | – | > 20 | 7.4 | – | – | –
COc1ccc2c(c1)[C@]13CCN[C@H](C2)[C@]1(C)OCOC3.O=C(O)/C=C/C(=O)O [XIIc, 3-Methoxy-14β-methyl-6,8-dioxamorphinan hydrogen fumarate] | – | – | ~30 | 2 | – | – | –
COc1ccc2c(c1)[C@]13CCN(CC4CC4)[C@H](C2)[C@@H]1OCOC3.O=C(O)/C=C/C(=O)O [XIVa, 17-Cyclopropylmethyl-3-methoxy-6,8-dioxamorphinan hydrogen fumarate] | – | – | ~15 | 0.3 | Outstanding | – | –
COc1ccc2c(c1)[C@]13CCN(CC4CCC4)[C@H](C2)[C@@H]1OCOC3 [XIVb, 17-Cyclobutylmethyl-3-methoxy-6,8-dioxamorphinan] | – | – | > 40 | 2 | – | – | –
COc1ccc2c(c1)[C@]13CCN(CC4CC4)[C@H](C2)[C@]1(C)OCOC3 [XIVc, 17-Cyclopropylmethyl-3-methoxy-14β-methyl-6,8-dioxamorphinan] | – | – | > 40 | ~5 | – | – | –
COc1ccc2c(c1)[C@]13CCN(CC4CC4)[C@H](C2)[C@@H]1OC(C)(C)OC3.O=C(O)/C=C/C(=O)O [XIVd, 17-Cyclopropylmethyl-7,7-dimethyl-3-methoxy-6,8-dioxamorphinan hydrogen fumarate] | – | – | ~30 | 0.29 | Outstanding | – | –
COc1ccc2c(c1)[C@]13CCN(CC4CCC4)[C@H](C2)[C@@H]1OC(C)(C)OC3.O=C(O)/C=C/C(=O)O [XIVe, 17-Cyclobutylmethyl-7,7-dimethyl-3-methoxy-6,8-dioxamorphinan hydrogen fumarate] | – | – | > 40 | 6.1 | – | – | –
Oc1ccc2c(c1)[C@]13CCN(CC4CC4)[C@H](C2)[C@@H]1OCOC3 [XVa, 17-Cyclopropylmethyl-3-hydroxy-6,8-dioxamorphinan] | – | – | 0.3 | 0.02 | Outstanding | 0.12 | –
O=C(O)/C=C/C(=O)O.Oc1ccc2c(c1)[C@]13CCN(CC4CCC4)[C@H](C2)[C@@H]1OCOC3 [XVb, 17-Cyclobutylmethyl-3-hydroxy-6,8-dioxamorphinan fumarate] | – | – | ~15 | 0.14 | Outstanding | ~9 | –
C[C@@]12OCOC[C@@]13CCN(CC1CC1)[C@@H]2Cc1ccc(O)cc13.O=C(O)/C=C/C(=O)O [XVc, 17-Cyclopropylmethyl-3-hydroxy-14β-methyl-6,8-dioxamorphinan hydrogen fumarate] | – | – | 0.63 | 0.064 | Outstanding | 0.1 | –
CC1(C)OC[C@]23CCN(CC4CC4)[C@H](Cc4ccc(O)cc42)[C@@H]3O1.O=C(O)/C=C/C(=O)O [XVd, 17-Cyclopropylmethyl-7,7-dimethyl-3-hydroxy-6,8-dioxamorphinan hydrogen fumarate] | – | – | 0.16 | 0.009 | Outstanding | 0.096 | –
CC1(C)OC[C@]23CCN(CC4CCC4)[C@H](Cc4ccc(O)cc42)[C@@H]3O1.O=C(O)/C=C/C(=O)O [XVe, 17-Cyclobutylmethyl-7,7-dimethyl-3-hydroxy-6,8-dioxamorphinan hydrogen fumarate] | – | – | ~15 | 0.04 | Outstanding | – | –
CN1CC[C@]23COCO[C@H]2[C@H]1Cc1ccc(O)cc13.O=C(O)/C=C/C(=O)O [Xa, 3-Hydroxy-17-methyl-6,8-dioxamorphinan fumarate] | – | – | > 40 | 0.3 | – | – | –
CN1CC[C@]23COCO[C@@]2(C)[C@H]1Cc1ccc(O)cc13.O=C(O)/C=C/C(=O)O [Xc, 14β,17-Dimethyl-3-hydroxy-6,8-dioxamorphinan fumarate] | – | – | ~40 | 0.04 | – | – | –
CN1CC[C@]23COC(C)(C)O[C@H]2[C@H]1Cc1ccc(O)cc13 [Xd, 3-Hydroxy-7,7,17-trimethyl-6,8-dioxamorphinan] | – | – | > 40 | 0.08 | – | – | –
C[C@H]1[C@H]2Cc3ccc(O)cc3[C@]1(C)CCN2CC1CC1 [cyclazocine] | – | – | – | – | – | – | both properties
